Reference: PubChem BioAssay (NCI)
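Where inhibition never reached the appropriate level, the endpoint shown equals the highest concentration tested. Otherwise, values were interpolated linearly from a five-concentration, 48-hour dose response in 96-well plates. GI50 marks 50% less growth. TGI marks complete inhibition of growth.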

Tests used:
Experiment in all cases: NCI tumour cell line growth inhibition, 48 h
OVCAR-4 ovarian = test system: OVCAR-4 ovarian
K-562 leukemia = test system: K-562 leukemia
RPMI-8226 leukemia = test system: RPMI-8226 leukemia
HCT-116 colon = test system: HCT-116 colon
NCI/ADR-RES ovarian = test system: NCI/ADR-RES ovarian
HT29 colon = test system: HT29 colon
MDA-MB-435 = test system: MDA-MB-435
SK-OV-3 ovarian = test system: SK-OV-3 ovarian
UACC-62 melanoma = test system: UACC-62 melanoma
SF-539 CNS = test system: SF-539 CNS
A549 NSCLC = test system: A549 NSCLC

Structure (SMILES) | TGI (OVCAR-4 ovarian) | TGI (K-562 leukemia) | TGI (RPMI-8226 leukemia) | TGI (HCT-116 colon) | TGI (NCI/ADR-RES ovarian) | TGI (HT29 colon) | TGI (MDA-MB-435) | TGI (SK-OV-3 ovarian) | TGI (UACC-62 melanoma) | TGI (SF-539 CNS) | TGI (A549 NSCLC) | GI50 (OVCAR-4 ovarian) | GI50 (RPMI-8226 leukemia) | GI50 (SF-539 CNS) | GI50 (MDA-MB-435) | GI50 (SK-OV-3 ovarian)
CC1(C)C(=O)c2ccccc2OC1N1CCN(C2Oc3ccccc3C(=O)C2(C)C)CC1 (stereo unspecified) | > 100 µM | > 100 µM | > 100 µM | > 100 µM | > 100 µM | > 100 µM | > 100 µM | > 100 µM | > 100 µM |  |  |  |  |  |  | 
O=C1c2ccccc2C(=O)c2sc(Nc3ccccc3C(F)(F)F)nc21 |  | 14.8 µM | 74.4 µM | > 100 µM |  |  | 16 µM | 30.8 µM | 29.7 µM | 45.8 µM | 57.2 µM |  |  |  |  | 
O=S(OC12CC3CC(CC(C3)C1)C2)c1cc(Cl)cc(Cl)c1OCc1ccccc1 (stereo unspecified) | > 100 µM | > 100 µM |  | > 100 µM |  | > 100 µM |  | > 100 µM | > 100 µM | > 100 µM |  |  |  |  |  | 
O=c1[nH]c(=O)n(C2CC(O)C(CO)O2)cc1NN=NCCCc1ccccc1 (stereo unspecified) | > 100 µM |  |  | > 100 µM | > 100 µM | > 100 µM | > 100 µM | > 100 µM | > 100 µM | > 100 µM | > 100 µM |  |  |  |  | 
O=[N+]([O-])c1ccc(C(Nc2ccccc2)P(c2ccccc2)c2ccccc2)cc1 (stereo unspecified) | > 100 µM | > 100 µM |  | > 100 µM | > 100 µM | > 100 µM | > 100 µM | > 100 µM | > 100 µM | > 100 µM | > 100 µM |  |  |  |  | 
CCCC(O)c1cn(C(NC(=O)c2ccccc2)P(=O)(OCC)OCC)nn1 (stereo unspecified) | > 100 µM | > 100 µM | > 100 µM | > 100 µM | > 100 µM | > 100 µM | > 100 µM |  | > 100 µM | > 100 µM | > 100 µM |  |  |  |  | 
CC1(C)C(CCO)CC1n1cc(I)c(=O)[nH]c1=O (stereo unspecified) | > 100 µM | > 100 µM | > 100 µM | > 100 µM | > 100 µM |  | > 100 µM | > 100 µM | > 100 µM | > 100 µM | > 100 µM |  |  |  |  | 
O=C1C=C2SC3C[C@@]24CC1[N+]1=c2c4c(c(O)c4c2=C(C=N4)CC1)N3 | 3.13 µM | 8.26 µM | 7.38 µM | 3.35 µM | 16.1 µM | > 26 µM |  | 7 µM | 3.23 µM | 3.34 µM | 21.2 µM |  |  |  |  | 
O=c1[nH]c2ccccc2c(O)c1/C=N/C(=S)NCc1ccccc1 |  |  |  | > 100 µM | > 100 µM | > 100 µM | > 100 µM | > 100 µM | > 100 µM | > 100 µM | > 100 µM |  |  |  |  | 
Brc1ccc2c3c1[C@H]1O[C@H]1c1cccc(c1-3)[C@@H]1O[C@H]21 | 28.8 µM | > 100 µM |  | 37.8 µM | 76.8 µM | 34.7 µM | 29.4 µM | 35.1 µM | 32.5 µM |  | 49.4 µM |  |  |  |  | 
CN(C)c1ccc(C=C2C(=O)N(c3ccccc3)N(c3ccccc3)C2=O)cc1 |  | > 100 µM | > 100 µM | > 100 µM |  | > 100 µM | > 100 µM | > 100 µM | > 100 µM |  | > 100 µM |  |  |  |  | 
CCCC(C)n1c(C)nc2c1C(=O)c1ccccc1C2=O (stereo unspecified) | > 100 µM | > 100 µM |  | 19.5 µM |  | > 100 µM |  | > 100 µM | 23.8 µM | 98 µM | > 100 µM |  |  |  |  | 
COc1cc([C@@H]2c3cc4c(cc3[C@@H](Nc3ccccc3C(=O)c3ccccc3)[C@H]3COC(=O)[C@H]23)OCO4)cc(OC)c1OC | > 100 µM | > 100 µM |  | > 100 µM | > 100 µM |  | 1.26 µM | > 100 µM |  | 0.638 µM | > 100 µM |  |  |  |  | 
O=c1cc(NNc2cccc(F)c2)[nH]c(=O)[nH]1 | > 100 µM | 84.4 µM | 47.4 µM | 31 µM | > 100 µM | 29.9 µM |  | > 100 µM | > 100 µM | > 100 µM | > 100 µM |  |  |  |  | 
COP(=O)(OC)C(NC(=O)C(F)(F)F)(c1ccccc1)C(F)(F)F (stereo unspecified) | > 100 µM | > 100 µM | > 100 µM | > 100 µM |  | > 100 µM |  | > 100 µM | > 100 µM | > 100 µM | > 100 µM |  |  |  |  | 
CCCCCc1cc2cc3c(c(O)c2c(=O)[nH]1)C1(CCC3)C(O)=c2c(=O)c3c(=O)cc(OC)c(=O)c=3c(=O)c2=C1O (stereo unspecified) | 4.44 µM | > 18.7 µM | > 18.7 µM | 2.41 µM | 15.3 µM | 3.11 µM | 3.13 µM | 5.38 µM | 3.29 µM |  | 3.53 µM |  |  |  |  | 
O=C1C=CC(=C(c2ccc(O)cc2)c2ccc(O)cc2)C=C1 | 27.6 µM | 14.2 µM | 21 µM | 22.7 µM |  | 38.6 µM |  | 32.3 µM | 14.5 µM | 23.6 µM | 53.3 µM |  |  |  |  | 

Structure (SMILES) | TGI (OVCAR-4 ovarian) | TGI (K-562 leukemia) | TGI (RPMI-8226 leukemia) | TGI (HCT-116 colon) | TGI (NCI/ADR-RES ovarian) | TGI (HT29 colon) | TGI (MDA-MB-435) | TGI (SK-OV-3 ovarian) | TGI (UACC-62 melanoma) | TGI (SF-539 CNS) | TGI (A549 NSCLC) | GI50 (OVCAR-4 ovarian) | GI50 (RPMI-8226 leukemia) | GI50 (SF-539 CNS) | GI50 (MDA-MB-435) | GI50 (SK-OV-3 ovarian)
CC(=O)OC(Cc1ccc2ccccc2n1)(C(F)(F)F)C(F)(F)F | 7.08 µM | > 100 µM |  | 4.24 µM | > 19.6 µM | 5.43 µM | 3.55 µM | 33 µM | 2.93 µM | 7.71 µM | 44.3 µM |  |  |  |  | 
NNc1nncc2[nH]cnc12 |  | > 100 µM | > 100 µM | > 100 µM | > 100 µM | > 100 µM | > 100 µM |  | > 100 µM | > 100 µM | > 100 µM |  |  |  |  | 
COC12CCCN1c1ccn(Cc3ccccc3)c(=O)c1C2=O (stereo unspecified) | > 100 µM | > 100 µM |  | > 100 µM | > 100 µM | > 100 µM | > 100 µM | > 100 µM | > 100 µM | > 100 µM | > 100 µM |  |  |  |  | 
O=[N+]([O-])c1ccccc1S(=O)(=O)c1ccccc1 | > 100 µM | > 100 µM | > 100 µM | > 100 µM |  | > 100 µM |  | > 100 µM | > 100 µM | > 100 µM | > 100 µM |  |  |  |  | 
O=C(CCCCCCCCC(=O)N1C(=O)CC(=O)N(c2ccccc2)C1=S)N1C(=O)CC(=O)N(c2ccccc2)C1=S | > 100 µM |  | > 100 µM | > 100 µM | > 100 µM | > 100 µM | > 100 µM | > 100 µM | > 100 µM |  | > 100 µM |  |  |  |  | 
COC(=O)[C@H]1NC(=O)CCSSC1(C)C | > 100 µM | > 100 µM | > 100 µM | > 100 µM | > 100 µM | > 100 µM | > 100 µM |  | > 100 µM | > 100 µM | > 100 µM |  |  |  |  | 
Cc1ccc2c(=O)c(C(=O)Nn3c(C)csc3=S)c[nH]c2n1 | > 100 µM | > 100 µM | > 100 µM | > 100 µM | > 100 µM | > 100 µM | > 100 µM |  | > 100 µM |  | > 100 µM |  |  |  |  | 
CCOP(=O)(OCC)C(c1ccccc1)N(C(=O)NC(F)(F)F)c1cccc(F)c1 (stereo unspecified) |  | > 100 µM | > 100 µM | > 100 µM | > 100 µM | > 100 µM | > 100 µM |  |  | > 100 µM | > 100 µM |  |  |  |  | 
COc1ccc2c(c1)C/C(=C\c1cccc3ccccc13)C2=O | > 100 µM | > 100 µM | > 100 µM |  | > 100 µM | > 100 µM |  | > 100 µM | > 100 µM | 44.8 µM | > 100 µM |  |  |  |  | 
Cc1cn(C2CC(N)C(C(=O)NCC(=O)O)O2)c(=O)[nH]c1=O (stereo unspecified) | > 100 µM | > 100 µM | > 100 µM | > 100 µM | > 100 µM | > 100 µM | > 100 µM | > 100 µM | > 100 µM |  |  |  |  |  |  | 
COc1cc2oc(=O)cc(C)c2cc1O | > 100 µM | > 100 µM | > 100 µM | > 100 µM | > 100 µM | > 100 µM | > 100 µM |  |  | > 100 µM | > 100 µM |  |  |  |  | 
C[n+]1c(-c2ccc(/C=N/Nc3ccnc(N/N=C/c4ccc(-c5cn6ccsc6[n+]5C)cc4)n3)cc2)cn2ccsc21 | > 100 µM | 39.7 µM | > 100 µM |  | > 100 µM | > 100 µM | 40.1 µM | > 100 µM | > 100 µM | > 100 µM | 91.2 µM |  |  |  |  | 
COc1cc(CNc2cnc3cc(N)ccc3n2)cc(OC)c1OC | > 100 µM | > 100 µM |  | 50.2 µM |  | 55.8 µM |  | 53 µM | > 100 µM | 42.4 µM | > 100 µM |  |  |  |  | 
O=C(CCCCCC(=O)N1CC(CCl)c2ccc([N+](=O)[O-])cc21)N1CC(CCl)c2ccc([N+](=O)[O-])cc21 (stereo unspecified) | > 100 µM | > 100 µM |  | > 100 µM | > 100 µM |  | > 100 µM | > 100 µM | > 100 µM | > 100 µM |  |  |  |  |  | 
CN(CCO)CCCC1COc2ccccc2O1 (stereo unspecified) | > 100 µM | > 100 µM |  | > 100 µM | > 100 µM | > 100 µM |  | > 100 µM | > 100 µM | > 100 µM | > 100 µM |  |  |  |  | 
C=CCN1C(=O)/C(=C/c2ccco2)N=C1SC1OC(COC(C)=O)C(OC(C)=O)C(OC(C)=O)C1OC(C)=O (stereo unspecified) | > 100 µM | > 100 µM | > 100 µM |  | > 100 µM |  | > 100 µM | > 100 µM | > 100 µM | > 100 µM |  |  |  |  |  | 
COc1ccc(-c2ccc(-c3ccc(C(=N)N)nc3)s2)cc1Cl | 3.25 µM |  | 4.9 µM |  |  |  | 3.12 µM | 3.36 µM |  | 3.17 µM |  | 1.74 µM | 2.25 µM | 1.74 µM | 1.73 µM | 1.75 µM
